Values quoted from earlier work, collected in patent US12324852B2, “Administration of benzodiazepine compositions” (Neurelis, Inc., priority 2011, dated 2025).

Cc1ncc2n1-c1ccc(Cl)cc1C(c1ccccc1F)=NC2 [Midazolam, 8-chloro-6-(2-fluorophenyl)-1-methyl-4H-imidazo(1,5-a)benzodiazepine]
solubility in most aqueous solutions (neutral pH (e.g. about 6 to 8)): relatively insoluble
solubility in water (pH lower than about 4): soluble in water
